Source: patent US6087119A, “Method for determining the catalytic activity of factor IXa” (Roche Diagnostics GmbH, priority 1996, dated 2000)

Biological target: rFIXa (human) (Homo sapiens, UniProt P00740)
Assay: Influence of known protease inhibitors on the activity of rFIXa
Type: biochemical
Set-up: coding for the FIX protease domain from amino acid position 181 to 415; Met (ATG start codon) (N); made in house
Method: Specific FIXa inhibitors can be identified by the inhibition of FIXa activity. For this purpose the FIXa activity is determined with a substrate of the R-D-Xxx-Gly-Arg-pNA type (Xxx=hydrophobic amino acid) in the absence and presence of the substance to be tested or of a substance mixture and the percentage inhibition is calculated from the quotients. The inhibition constant Ki is determined from the inhibition kinetics. The measurement signal is amplified by the presence of high concentrations of certain alcohols (preferably ethylene glycol).
200 μl buffer (100 mmol/l Tris-HCl, 100 mmol/l NaCl, 5 mmol/l CaCl2, 20-40% alcohol, pH 7-9) the buffer contains the inhibitor at various concentrations […]
The reaction can also be terminated after 5-10 min by stopping with acetic acid (25 μl, 50%), the absorbance is determined at 405 nm against a reagent blank.
Influence of Known Protease Inhibitors on the Activity of rFIXa Using Different pHs, Alcohols and Alcohol Concentrations 42 mmol/l Tris-HCl, pH 7.4 or 8.5 substrate MeSO2 -D-CHG-Gly-Arg-pNA (1.02 mmol/l) […]
inhibitor at stepped concentrations (4.1-163 μmol/l)
Known synthetic inhibitors of the 3-amidinophenylalanine type were used as inhibitors (Sturzebecher et al, J. Enzyme. Inhibition 9 (1995) 87 and WO 92/08709) (1991)). The inhibitory effect was examined at a low and at a high alcohol concentration as an example.

rFIXa (human), sequence (P00740 227-461 limits assumed): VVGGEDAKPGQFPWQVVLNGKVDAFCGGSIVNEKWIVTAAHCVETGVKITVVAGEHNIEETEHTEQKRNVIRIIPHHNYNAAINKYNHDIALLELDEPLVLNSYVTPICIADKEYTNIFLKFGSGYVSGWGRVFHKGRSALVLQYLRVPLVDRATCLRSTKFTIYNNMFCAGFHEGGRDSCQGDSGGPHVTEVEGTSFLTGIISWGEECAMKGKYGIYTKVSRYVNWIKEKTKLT
rFIXa (human), sequence (P00740 131-226 limits assumed): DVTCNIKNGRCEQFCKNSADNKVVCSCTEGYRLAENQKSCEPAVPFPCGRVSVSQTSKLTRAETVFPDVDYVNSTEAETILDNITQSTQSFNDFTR

Inhibition of the activity of factor IXa (in %) (inhibitor 4.1 μmol/l, pH 7.4, 4.1% ethanol, 0.57 μmol/l rFIXa): 89.5% | Inhibition of the activity of factor IXa (in %) (inhibitor 4.1 μmol/l, pH 7.4, 33% ethylene glycol, 0.057 μmol/l rFIXa): 86.9% | Inhibition of the activity of factor IXa (in %) (inhibitor 4.1 μmol/l, pH 8.5, 4.1% ethanol, […] rFIXa): 90.6% | Inhibition of the activity of factor IXa (in %) (inhibitor 4.1 μmol/l, pH 8.5, 33% ethylene glycol, […] rFIXa): 85.6% | Inhibition of the activity of factor IXa (in %) (inhibitor 8.2 μmol/l, pH 7.4, 4.1% ethanol, 0.57 μmol/l rFIXa): 87.6% | Inhibition of the activity of factor IXa (in %) (inhibitor 8.2 μmol/l, pH 7.4, 33% ethylene glycol, 0.057 μmol/l rFIXa): 79.4% | Inhibition of the activity of factor IXa (in %) (inhibitor 8.2 μmol/l, pH 8.5, 4.1% ethanol, […] rFIXa): 85.2% | Inhibition of the activity of factor IXa (in %) (inhibitor 8.2 μmol/l, pH 8.5, 33% ethylene glycol, […] rFIXa): 72.8% | Inhibition of the activity of factor IXa (in %) (inhibitor 16.3 μmol/l, pH 7.4, 4.1% ethanol, 0.57 μmol/l rFIXa): 76.2% | Inhibition of the activity of factor IXa (in %) (inhibitor 16.3 μmol/l, pH 7.4, 33% ethylene glycol, 0.057 μmol/l rFIXa): 61.7% | Inhibition of the activity of factor IXa (in %) (inhibitor 16.3 μmol/l, pH 8.5, 4.1% ethanol, […] rFIXa): 74.8% | Inhibition of the activity of factor IXa (in %) (inhibitor 16.3 μmol/l, pH 8.5, 33% ethylene glycol, […] rFIXa): 58.0% | Inhibition of the activity of factor IXa (in %) (inhibitor 40.8 μmol/l, pH 7.4, 4.1% ethanol, 0.57 μmol/l rFIXa): 55.8% | Inhibition of the activity of factor IXa (in %) (inhibitor 40.8 μmol/l, pH 7.4, 33% ethylene glycol, 0.057 μmol/l rFIXa): 38.9% | Inhibition of the activity of factor IXa (in %) (inhibitor 40.8 μmol/l, pH 8.5, 4.1% ethanol, […] rFIXa): 55.2% | Inhibition of the activity of factor IXa (in %) (inhibitor 40.8 μmol/l, pH 8.5, 33% ethylene glycol, […] rFIXa): 33.6% | Inhibition of the activity of factor IXa (in %) (inhibitor 81.6 μmol/l, pH 7.4, 4.1% ethanol, 0.57 μmol/l rFIXa): 36.3% | Inhibition of the activity of factor IXa (in %) (inhibitor 81.6 μmol/l, pH 7.4, 33% ethylene glycol, 0.057 μmol/l rFIXa): 21.2% | Inhibition of the activity of factor IXa (in %) (inhibitor 81.6 μmol/l, pH 8.5, 4.1% ethanol, […] rFIXa): 35.3% | Inhibition of the activity of factor IXa (in %) (inhibitor 81.6 μmol/l, pH 8.5, 33% ethylene glycol, […] rFIXa): 20.7% | Inhibition of the activity of factor IXa (in %) (inhibitor 163 μmol/l, pH 7.4, 4.1% ethanol, 0.57 μmol/l rFIXa): 23.8% | Inhibition of the activity of factor IXa (in %) (inhibitor 163 μmol/l, pH 7.4, 33% ethylene glycol, 0.057 μmol/l rFIXa): 15.0% | Inhibition of the activity of factor IXa (in %) (inhibitor 163 μmol/l, pH 8.5, 4.1% ethanol, […] rFIXa): 20.8% | Inhibition of the activity of factor IXa (in %) (inhibitor 163 μmol/l, pH 8.5, 33% ethylene glycol, […] rFIXa): 15.8%
Structure (SMILES): CC(C)c1cc(C(C)C)c(S(=O)(=O)NC(Cc2cccc(C(=N)N)c2)C(=O)N2CCC(C(=O)O)CC2)c(C(C)C)c1 (stereo not drawn) [TIPPS-(3-Am)Phe-iNip-OH, Nα-(2,4,6-triisopropylbenzenesulfonyl)-3-amidino-(D,L)-phenylalanine-isonipecotic acid]
